Laboratory results taken from patent US20240131032A1, “AN ACTIVITY-GUIDED MAP OF ELECTROPHILE-CYSTEINE INTERACTIONS IN PRIMARY HUMAN IMMUNE CELLS” (The Scripps Research Institute, priority 2019, published 2024).

Legend:
BIRC2 = BIRC2 (Homo sapiens, UniProt Q13490); test: isoTOP-ABPP and TMT-ABPP cysteine engagement, BIRC2; type: binding; parameters: endogenous in cells; host or cells: primary human T cells
Experimental: (§1) Activated or expanded T cells were re-suspended in RPMI media supplemented with 10% FBS, L-glutamine (2 mM), penicillin (100 U/mL), and streptomycin (100 μg/mL) at 2×10^6 cells/mL. The compounds were added to cells as 1000×DMSO stocks and mixed well with the media by pipetting up and down after addition. The cells were kept at 37° C. in 5% CO2 containing incubators for 3 h (or otherwise specified times), then pelleted by centrifugation (524 g, 5 min, 4° C.), washed with cold PBS (10 mL) and transferred to Eppendorf tubes (1 mL PBS). The cells were pelleted again (524 g, 5 min, 4° C.), flash-frozen, and kept at −80° C. until further analysis.
(§2) Activated or expanded primary human T cells were re-suspended in RPMI (1×10^6 cells/mL) containing 10% fetal bovine serum (FBS), penicillin (100 U/mL), streptomycin ([…]), and L-glutamine (2 mM). […] The resulting proteomes were analyzed by competitive isotopic Tandem Orthogonal Proteolysis Activity-Based Protein Profiling (isoTOP-ABPP). […]
(§3) The heavy/light isoTOP-ABPP ratios (R values) for each unique peptide (DMSO/compound treated) were quantified with in-house CIMAGE software (Weerapana et al., 2010) using default parameters (3 MS1 acquisitions per peak and signal to noise threshold set to 2.5). Site-specific engagement of cysteine residues was assessed by blockade of IA-alkyne probe labeling. […]

[1] = test system: CRISPR/Cas9-edited primary human T cells; test: T cell activation after CRISPR/Cas9 target disruption plus compound (FACS CD25/CD69); type: cell-based
Experimental: DNA templates consisting of a T7 RNA Polymerase promoter, the ˜20 nt target-specific sequence, and the chimeric sgRNA scaffold were generated for each desired target by overlapping PCR using Q5 High Fidelity Master Mix (New England Biolabs) under the following conditions: 98° C. for 2 min; 50° C. for 10 min; 72° C. for 10 min. Guide RNA templates were used to transcribe guide RNAs using the HiScribe T7 High Yield RNA Synthesis kit (New England Biolabs) according to the manufacturer's instructions. Following in vitro transcription, guides were purified using Monarch RNA Cleanup Kit (New England Biolabs) following manufacturer's instructions.
The Cas9 RNPs were assembled before transfection using the ArciTect™ Cas9-eGFP Nuclease (StemCell) with the T7 transcribed RNAs at a molar ratio of 1:3 in Buffer T. For each target of interest, the genome was tiled with 3 unique guide RNAs. Before the transfection, primary T cells were preactivated on αCD3/αCD28-precoated plates in complete RPMI medium supplemented with 100 U/mL IL2 for 48 h. The T cells were then washed with PBS and resuspended in Buffer T (10×10^6 cells/mL) and the Cas9 RNP transfections were performed using the Neon Transfection system (ThermoFisher). Following the Cas9 RNP transfection, T cells were cultured in RPMI supplemented with 50 U/mL IL2 for 7 days. […]

TMEM173 = target: T1, TMEM173 (Homo sapiens, UniProt Q86WV6); test: isoTOP-ABPP and TMT-ABPP cysteine engagement, TMEM173; type: binding
T1 construct: endogenous in cells; host or cells: primary human T cells
Experimental: as §1, §2, §3

T1 sequence (Q86WV6 whole entry H232R): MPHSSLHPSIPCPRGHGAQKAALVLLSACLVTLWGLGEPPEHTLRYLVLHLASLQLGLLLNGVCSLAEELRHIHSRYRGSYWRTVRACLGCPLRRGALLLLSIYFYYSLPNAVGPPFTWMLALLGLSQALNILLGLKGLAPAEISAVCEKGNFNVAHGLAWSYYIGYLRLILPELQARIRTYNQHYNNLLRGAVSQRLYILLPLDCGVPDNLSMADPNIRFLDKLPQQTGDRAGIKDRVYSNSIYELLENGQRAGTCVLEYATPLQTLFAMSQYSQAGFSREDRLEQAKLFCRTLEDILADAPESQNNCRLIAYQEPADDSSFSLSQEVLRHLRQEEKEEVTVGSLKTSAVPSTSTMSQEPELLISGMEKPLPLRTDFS
BIRC2, sequence (Q13490 whole entry): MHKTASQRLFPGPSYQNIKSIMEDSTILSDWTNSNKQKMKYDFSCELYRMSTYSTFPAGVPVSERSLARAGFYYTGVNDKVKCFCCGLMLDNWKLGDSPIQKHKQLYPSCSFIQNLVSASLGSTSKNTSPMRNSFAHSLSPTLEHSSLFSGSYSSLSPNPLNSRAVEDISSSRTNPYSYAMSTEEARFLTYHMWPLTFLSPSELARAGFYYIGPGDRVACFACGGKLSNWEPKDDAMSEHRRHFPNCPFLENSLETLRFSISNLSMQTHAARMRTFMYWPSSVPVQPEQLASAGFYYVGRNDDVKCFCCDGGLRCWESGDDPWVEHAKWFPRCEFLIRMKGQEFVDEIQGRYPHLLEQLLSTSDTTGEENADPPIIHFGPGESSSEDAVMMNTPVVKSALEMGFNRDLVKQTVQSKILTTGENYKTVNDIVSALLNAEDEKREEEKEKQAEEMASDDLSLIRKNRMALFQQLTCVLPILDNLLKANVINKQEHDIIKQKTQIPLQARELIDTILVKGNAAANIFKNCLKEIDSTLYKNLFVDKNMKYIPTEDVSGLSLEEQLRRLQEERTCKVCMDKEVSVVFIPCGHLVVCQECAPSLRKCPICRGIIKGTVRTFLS

Structure (SMILES) | engagement of C45 of BIRC2 (BIRC2) | T cell activation in BIRC2/BIRC3-null cells ([1]; CRISPR/Cas-9 disruption of BIRC2 and BIRC3) | labeling of C91 of TMEM173 (TMEM173) | T cell activation in sgERCC3 cells ([1]; CRISPR/Cas9 disruption of ERCC3)
COC(=O)/C=C/C(=O)OC [DMF, reference compound] | engaged |  |  | 
O=C(CCl)N1CCN(S(=O)(=O)c2ccc(-c3ccncc3)cc2)CC1 [EV-3] | engaged | further decreased T cell activation |  | 
C=CC(=O)N(Cc1cccc(Cl)c1Cl)c1ccc(Oc2ccccc2)c(C(F)(F)F)c1 [BPK-21] |  |  | direct labeling of C91 | only a modest further reduction in activation
C=CC(=O)N(Cc1cccc(Cl)n1)c1ccc(C(=O)Nc2ccccc2)nc1 [BPK-25] |  |  | direct labeling of C91 | 
